Laboratory results published in BindingDB's records for doi:10.1021/jm010468s (Pfizer, 2002).
Non-standard residues stand in square brackets, D forms with d. Residues, ends and D or L forms follow the SMILES beside them. Trp(6-Cl) = N[C@@H](Cc1c[nH]c2cc(Cl)ccc12)C(=O)O; Pmp = N[C@@H](Cc1ccc(CP(=O)(O)O)cc1)C(=O)O; Ac3c = NC1(C(=O)O)CC1; Aib = CC(C)(N)C(=O)O

Assay: Inhibition of p53 binding to […] (hdm2-GST)

CSCC[C@H](NC(=O)[C@H](Cc1ccccc1)NC(C)=O)C(=O)NC(C)(C)C(=O)N[C@@H](Cc1ccc(CP(=O)(O)O)cc1)C(=O)N[C@@H](Cc1c[nH]c2cc(Cl)ccc12)C(=O)N[C@@H](CCC(=O)O)C(=O)NC1(C(=O)N[C@@H](CC(C)C)C(N)=O)CC1 [Ac-Phe-Met-Aib-Pmp-6-Cl-Trp-Glu-Ac3c-Leu-NH2, GST-hdm2 binding peptide] (Ac-FM[Aib][Pmp][Trp(6-Cl)]E[Ac3c]L-NH2)
IC50: 5 nM
